Like-named read-outs stand apart in the source and are kept apart here. Values belong to the compound of their own block, whether it stands above or below them.
Columns and labels:
C2C12 cells = experiment: 2-NBDG glucose uptake by flow cytometry; conditions: for fold induction at 5 µM: Mus musculus, C2C12, 1 h, read-out: Ratio of 2-NBDG uptake
Experimental: (§1) Furthermore, as internal controls, samples of glucose free media, respectively glucose free media with test compound, were tested. Subsequently, cells were washed, trypsinized and harvested in ice-cold PBS before centrifuged at 1.6 x10^3 rpm at 4°C. Cells were analyzed by flow cytometry (FACS Calibur, BD Bioscience, respectively a BD Accuri® C6 Flow Cytometer).
(§2) To investigate the impact of the Grk5 inhibitors on Glucose uptake, cells were cultured 1 h in glucose free media supplied with 100 µM 2-NBDG at 37 °C and 5 % (v/v) CO2. Furthermore, as internal controls, samples of glucose free media, respectively glucose free media with test compounds, were measured. Fluorescence was analyzed by flow cytometer (FACS Calibur, BD Bioscience, respectively a BD Accuri® C6 Flow Cytometer).

beta-TC6 cells [1] = experiment: Insulin HTRF assay, relative activity Ar normalized to sunitinib; assay type: cell-based; conditions: Mus musculus, normalized to positive control sunitinib (5 µM = 100%), Table 10
How it was run: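 Relative activity Ar was scaled between 0% and 100% controls, with sunitinib at 5 µM f.c. as reference. Insulin released by beta-TC6 cells was quantified by sandwich HTRF (Eu-cryptate/XL665 antibodies, 120 min RT). Cells had been seeded 24 or 48 h, then treated 2–4 h at 37°C in induction buffer, 0.5% DMSO.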

beta-TC6 cells [2] = experiment: Insulin release in high glucose medium, rat/mouse insulin ELISA; assay type: cell-based; conditions: for activation at 5 µM / fold induction at 5 µM: Mus musculus, Beta-TC6, 2 h; for fold induction at 5 µM: high glucose (4.5 g/L)
Experimental: Cells were cultured overnight, washed with PBS and then treated with 5 µM of test compounds as well as non-inhibitor controls for 2 h in a high glucose (4.5 g/L) DMEM at 37°C and 5 % (v/v) CO2. Release of insulin was detected using a rat/mouse insulin ELISA.
After incubation, the supernatant of the beta-TC6 insulinoma cells was diluted 1:20, whereas the supernatants of the RIN-T2B-5AH were diluted 1:10. The insulin release was measured with rat/mouse insulin ELISA (Merck Millipore Darmstadt, Cat. # EZRMI-13K) by following the manufacture's protocol. The enzyme activity of the horseradish peroxidase of the immobilized biotinylated antibodies was monitored spectrophotometrically by the increased absorbency at 490 nm, and corrected by the absorbency at 610 nm.
Afterwards, the supernatant was analyzed for insulin using the rat/mouse insulin ELISA (Merck Millipore Darmstadt, Cat. # EZRMI-13K) by following the manufacture's protocol..
Cells were treated for 2 h in a high glucose (4.5 g/L) DMEM media at 37°C and 5 % (v/v) CO2. Insulin release was analyzed using the rat/mouse insulin ELISA.

beta-TC6 cells [3] = experiment: 2-NBDG glucose uptake by flow cytometry; conditions: Mus musculus, Beta-TC6, 1 h, read-out: Ratio of 2-NBDG uptake
Experimental: as §1, §2

beta-TC6 cells [4] = experiment: Insulin release in high glucose medium, rat/mouse insulin ELISA; assay type: cell-based; conditions: 2 h, high glucose (4.5 g/L)
[5] = test system: 3T3-L pre-adipocytes differentiated to matured adipocytes; experiment: Insulin dependence of 2-NBDG uptake in matured adipocytes; assay type: cell-based; conditions: compound added beside 10 µg/ml insulin, 1 h, 100 µM 2-NBDG; Figure 12
Experimental: To investigate if the 2-NBDG uptake of the inventive compound inhibitors of Scyl1 and GRK5 are insulin dependent, 3T3-L pre-adipocytes were differentiated to matured adipocytes. Afterwards, cells were starved for 4 h before they were washed and glucose free media supplied with 100 µM 2-NBDG, in the presence and absence of 10 µg/ml insulin and either Cpd 10 (Scyl1) of Cpd 1 (Grk5) was added for 1 h at 37 °C. Furthermore, as internal controls, samples of glucose free media or glucose free media with compound were measured (data not shown). Fluorescence was analyzed by flow cytometer (FACS Calibur, BD Bioscience, respectively a BD Accuri® C6 Flow Cytometer). For evaluation, cells were gated using the side- and forward scatter SSC/FSC and quantified by excited at 488 and detected at 533 nm (FL1).

GRK5 = target: T1, GRK5 (Homo sapiens, UniProt P34947); experiment: GRK5 radiometric filtration binding assay (Millipore KinaseProfiler); assay type: biochemical; conditions: Table 6
T1 construct: purchased Millipore (KinaseProfiler service)
T1 sequence (P34947 whole entry): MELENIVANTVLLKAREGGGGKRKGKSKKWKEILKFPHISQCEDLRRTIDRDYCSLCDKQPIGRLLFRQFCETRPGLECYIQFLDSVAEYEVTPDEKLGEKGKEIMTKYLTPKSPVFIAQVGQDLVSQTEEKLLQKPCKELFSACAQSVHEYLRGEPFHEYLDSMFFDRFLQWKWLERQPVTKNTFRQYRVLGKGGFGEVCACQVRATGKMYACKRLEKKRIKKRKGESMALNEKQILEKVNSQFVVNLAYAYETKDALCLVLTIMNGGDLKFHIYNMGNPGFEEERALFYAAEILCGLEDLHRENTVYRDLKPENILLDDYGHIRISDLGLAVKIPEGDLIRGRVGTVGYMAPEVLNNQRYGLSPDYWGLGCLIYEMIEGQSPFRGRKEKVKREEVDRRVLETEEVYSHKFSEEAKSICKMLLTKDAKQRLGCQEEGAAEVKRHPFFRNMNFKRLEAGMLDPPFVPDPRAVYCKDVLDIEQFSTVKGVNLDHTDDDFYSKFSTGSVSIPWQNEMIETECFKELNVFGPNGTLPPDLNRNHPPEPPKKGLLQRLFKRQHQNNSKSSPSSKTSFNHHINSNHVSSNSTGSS
Experimental: As alternative, IC50 values are determined by a radiometric based filtration binding assay, namely Millipore KinaseProfiler™. GRK5 is incubated with 8 mM MOPS pH7.0, 0.2 mM EDTA, 2 mg/mL casein, 10 mM MgAcetate and […] (specific activity approx. 500 cpm/pmol, concentration as required). The reaction is initiated by the addition of the MgATP mix. After incubation for 40 minutes at room temperature, the reaction is stopped by the addition of 3 % phosphoric acid solution. 10 µL of the reaction is then spotted onto a P30 filtermat and washed three times for 5 minutes in 75 mM phosphoric acid and once in methanol prior to drying and scintillation counting.

beta-TC6 cell system = experiment: Comparison of insulin release with commercially available inhibitors, mouse/rat insulin ELISA; assay type: cell-based; conditions: Mus musculus, Beta-TC6; 5µM, 2 h; DMSO = 0; Table 9
Experimental: Based on literature references, several commercially available inhibitors were compared with compounds according to the invention. […] Cells were cultured for 24 h before treated with the inventive compounds and control inhibitors for 2 h at 37 °C and 5 % (v/v) CO2. Insulin in the supernatant was detected by mouse/rat insulin ELISA.

- IC50 (GRK5): 5 to 20 µM
SMILES: NC(=O)c1ccc(-c2cnc3ccc(Cc4ccc(F)cc4)nn23)cc1 [compound 1, 4-[6-[(4-fluorophenyl)methyl]imidazo[1,2-b]pyridazin-3-yl]benzamide]
- uptake of 2-NBDG compared with negative control background (C2C12 cells; C2C12, 1 h compound treatment, Figure 10): significantly increased uptake of 2-NBDG
- fold induction at 5 µM (C2C12 cells): 2.45
- Emax (beta-TC6 cells [1]): 20 to 50%
- activation at 5 µM (beta-TC6 cells [2]; high glucose (4.5 g/L) DMEM, Example 9, Figure 6, ± SEM, read-out: increase of insulin release): 42.8 ± 6.8%
- fold induction at 5 µM (beta-TC6 cells [2]; 0 µM = 1, Table 7): 1.81
- fold induction at 5 µM (beta-TC6 cells [3]): 1.57
- fold induction at 2 µM (beta-TC6 cells [4]; 0 µM = 1, Table 7): 1.24
- fold induction at 10 µM (beta-TC6 cells [4]; 0 µM = 1, Table 7): 2.03
- additional (insulin independent) increase [5]: 48.9 ± 7.2%
- activation at 5 µM (beta-TC6 cell system): 70.7%

SMILES: COc1cc(-c2ccc3ncc(-c4cccnc4)n3n2)cc(OC)c1OC [compound 10, 3-(3-pyridyl)-6-(3,4,5-trimethoxyphenyl)imidazo[1,2-b]pyridazine]
- fold induction at 5 µM (C2C12 cells): 1.55
- Emax (beta-TC6 cells [1]): 20 to 50%
- increase of insulin release (beta-TC6 cells [2]; 5 µM, 2 h, high glucose (4.5 g/L) DMEM, Example 4, Figure 2): 60.2 ± 8.9%
- activation at 5 µM (beta-TC6 cells [2]; high glucose (4.5 g/L) DMEM, Example 4, Figure 2, read-out: increase of insulin release): 60.2 ± 8.9%
- fold induction at 5 µM (beta-TC6 cells [2]; 0 µM = 1, Table 3): 3.04
- fold induction at 5 µM (beta-TC6 cells [3]): 1.14
- fold induction at 2 µM (beta-TC6 cells [4]; 0 µM = 1, Table 3): 1.66
- fold induction at 10 µM (beta-TC6 cells [4]; 0 µM = 1, Table 3): 2.68
- additional (insulin independent) increase [5]: 18.2 ± 3.5%
- activation at 5 µM (beta-TC6 cell system): 89.8%

Source: patent publication EP2818471A1, “Nitrogen bicyclic compounds as inhibitors for Scyl1 and Grk5” (Max-Planck-Gesellschaft zur Förderung der Wissenschaften …, priority 2013, dated 2014)
